For 2 compounds, IC50 results are on record in BindingDB's records for doi:10.1021/np2005083 (National Cancer Institute-Frederick, 2011).

The structures appear in SMILES notation.

This assay deals with Transcription factor Jun (Homo sapiens, UniProt P05412). The assay can be described thus: Inhibition of AP1 expressed in HEK293T cells coexpressing beta-lactamase pre-incubated 1 hr before TPA addition measured 18 hrs post TPA challenge by fluorimetric assay.
Chain of Transcription factor Jun (P05412 whole entry): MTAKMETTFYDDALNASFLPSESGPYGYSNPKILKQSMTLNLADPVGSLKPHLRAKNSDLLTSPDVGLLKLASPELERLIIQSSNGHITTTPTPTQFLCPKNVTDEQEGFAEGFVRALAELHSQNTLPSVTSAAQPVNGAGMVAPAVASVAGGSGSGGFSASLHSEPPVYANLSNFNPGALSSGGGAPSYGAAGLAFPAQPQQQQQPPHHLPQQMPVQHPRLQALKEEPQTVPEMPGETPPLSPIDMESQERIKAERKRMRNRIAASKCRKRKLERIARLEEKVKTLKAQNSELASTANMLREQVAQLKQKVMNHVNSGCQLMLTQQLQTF

For the compound `CC[C@H]1NC(=O)[C@@H]2CSC(=N2)[C@@H](Cc2ccccc2)N(C)C(=O)[C@@H]2CCCN2C(=O)[C@H](C(C)C)N(C)C(=O)[C@H](Cc2ccccc2)OC(=O)[C@H](C)[C@@H](C)NC(=O)[C@@H](C(C)C)NC(=O)[C@@H](Cc2ccccc2)N(C)C(=O)[C@@H]2CSC1=N2`, the half-inhibitory concentration (IC50) stood at 5.2 µM. As for `CC(C)[C@H]1C(=O)N2CCC[C@H]2C(=O)N(C)[C@H](Cc2ccccc2)C2=N[C@@H](CS2)C(=O)N[C@H](C)C2=N[C@@H](CS2)C(=O)N(C)[C@H](Cc2ccccc2)C(=O)N[C@H](C(C)C)C(=O)N[C@H](C)[C@@H](C)C(=O)O[C@@H](Cc2ccccc2)C(=O)N1C`, the figure is 6 µM.
